Legend:
[1] = test system: normal NK cells expanded with K562-aAPC; test: percent inhibition of viability; higher = more inhibition; details: 72 h, IL-2 2.5 ng/mL
Protocol: (§1)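 Drug sensitivity and resistance testing on K562-aAPC-expanded normal NK cells: 5 concentrations (10-fold steps over a 10,000-fold range), 72 h at 37 °C, viability by CellTiter-Glo normalised to DMSO and benzethonium chloride controls; DSS from the fitted curve.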

[2] = test system: DERL-7 (IL-2 2.5 ng/mL); test: as above; details: 72 h
[3] = test system: IMC-1 (IL-2 20 ng/mL); test: as above; details: 72 h
[4] = test system: KAI3 (IL-2 2.5 ng/mL); test: as above; details: 72 h
[5] = test system: KHYG-1 (IL-2 2.5 ng/mL); test: as above; details: 72 h
[6] = test system: NK-92 (IL-2 2.5 ng/mL); test: as above; details: 72 h
[7] = test system: NK-YS (IL-2 2.5 ng/mL); test: as above; details: 72 h
[8] = test system: NKL (IL-2 2.5 ng/mL); test: as above; details: 72 h
[9] = test system: SNK-6 (IL-2 2.5 ng/mL); test: as above; details: 72 h
[10] = test system: YT (IL-2 2.5 ng/mL); test: as above; details: 72 h
[11] = test system: normal primary NK cells, pool 1 (3 donors) (IL-2 2.5 ng/mL); test: as above; details: 72 h
[12] = test system: normal primary NK cells, pool 1 (3 donors), resting (IL-2 0 ng/mL); test: as above; details: 72 h
[13] = test system: normal primary NK cells, pool 2 (3 donors) (IL-2 2.5 ng/mL); test: as above; details: 72 h
[14] = test system: normal primary NK cells, pool 3 (3 donors) (IL-2 2.5 ng/mL); test: as above; details: 72 h
[15] = test system: normal NK cells expanded with K562-aAPC; test: drug sensitivity score (DSS) (DSS units); higher = more sensitive; extreme values may be limits of the assay; details: 72 h; IL-2 2.5 ng/mL
Protocol: as §1

[16] = test system: DERL-7 (IL-2 2.5 ng/mL); test: as above; details: 72 h
[17] = test system: IMC-1 (IL-2 20 ng/mL); test: as above; details: 72 h
[18] = test system: KAI3 (IL-2 2.5 ng/mL); test: as above; details: 72 h
[19] = test system: KHYG-1 (IL-2 2.5 ng/mL); test: as above; details: 72 h
[20] = test system: NK-92 (IL-2 2.5 ng/mL); test: as above; details: 72 h
[21] = test system: NK-YS (IL-2 2.5 ng/mL); test: as above; details: 72 h
[22] = test system: NKL (IL-2 2.5 ng/mL); test: as above; details: 72 h
[23] = test system: SNK-6 (IL-2 2.5 ng/mL); test: as above; details: 72 h
[24] = test system: YT (IL-2 2.5 ng/mL); test: as above; details: 72 h
[25] = test system: normal primary NK cells, pool 1 (3 donors) (IL-2 2.5 ng/mL); test: as above; details: 72 h
[26] = test system: normal primary NK cells, pool 1 (3 donors), resting (IL-2 0 ng/mL); test: as above; details: 72 h
[27] = test system: normal primary NK cells, pool 2 (3 donors) (IL-2 2.5 ng/mL); test: as above; details: 72 h
[28] = test system: normal primary NK cells, pool 3 (3 donors) (IL-2 2.5 ng/mL); test: as above; details: 72 h

## CCc1cc(Nc2nccc(-c3c(-c4ccc(OC)c(C(=O)Nc5c(F)cccc5F)c4)nc4ccccn34)n2)c(OC)cc1N1CCC(N2CCN(S(C)(=O)=O)CC2)CC1 (max concentration tested 10000 nM)
[1]; 1 nM
  percent inhibition of viability: -0.94%
[1]; 10 nM
  percent inhibition of viability: -0.53%
[1]; 100 nM
  percent inhibition of viability: -2.18%
[1]; 1000 nM
  percent inhibition of viability: 1.87%
[1]; 10000 nM
  percent inhibition of viability: 0.97%
[2]; 1 nM
  percent inhibition of viability: -3.29%
[2]; 10 nM
  percent inhibition of viability: 4.96%
[2]; 100 nM
  percent inhibition of viability: -4.2%
[2]; 1000 nM
  percent inhibition of viability: 9.43%
[2]; 10000 nM
  percent inhibition of viability: 2.99%
[3]; 1 nM
  percent inhibition of viability: -4.74%
[3]; 10 nM
  percent inhibition of viability: -7.3%
[3]; 100 nM
  percent inhibition of viability: -8.28%
[3]; 1000 nM
  percent inhibition of viability: -4.78%
[3]; 10000 nM
  percent inhibition of viability: -4.76%
[4]; 1 nM
  percent inhibition of viability: 12.8%
[4]; 10 nM
  percent inhibition of viability: 4.45%
[4]; 100 nM
  percent inhibition of viability: 3.16%
[4]; 1000 nM
  percent inhibition of viability: -0.26%
[4]; 10000 nM
  percent inhibition of viability: -1.06%
[5]; 1 nM
  percent inhibition of viability: -1.04%
[5]; 10 nM
  percent inhibition of viability: -3.94%
[5]; 100 nM
  percent inhibition of viability: -1.22%
[5]; 1000 nM
  percent inhibition of viability: -2.02%
[5]; 10000 nM
  percent inhibition of viability: -0.15%
[6]; 1 nM
  percent inhibition of viability: -8.65%
[6]; 10 nM
  percent inhibition of viability: -15.5%
[6]; 100 nM
  percent inhibition of viability: 0.66%
[6]; 1000 nM
  percent inhibition of viability: 9.19%
[6]; 10000 nM
  percent inhibition of viability: 19.7%
[7]; 1 nM
  percent inhibition of viability: -1.69%
[7]; 10 nM
  percent inhibition of viability: -4.53%
[7]; 100 nM
  percent inhibition of viability: 2.55%
[7]; 1000 nM
  percent inhibition of viability: 3.02%
[7]; 10000 nM
  percent inhibition of viability: 7.23%
[8]; 1 nM
  percent inhibition of viability: -12.8%
[8]; 10 nM
  percent inhibition of viability: -7.57%
[8]; 100 nM
  percent inhibition of viability: -8.59%
[8]; 1000 nM
  percent inhibition of viability: -4.55%
[8]; 10000 nM
  percent inhibition of viability: -4.74%
[9]; 1 nM
  percent inhibition of viability: -2.73%
[9]; 10 nM
  percent inhibition of viability: -8.81%
[9]; 100 nM
  percent inhibition of viability: -9.86%
[9]; 1000 nM
  percent inhibition of viability: -16%
[9]; 10000 nM
  percent inhibition of viability: -27.5%
[10]; 1 nM
  percent inhibition of viability: 2.55%
[10]; 10 nM
  percent inhibition of viability: -0.94%
[10]; 100 nM
  percent inhibition of viability: 2.88%
[10]; 1000 nM
  percent inhibition of viability: -1.24%
[10]; 10000 nM
  percent inhibition of viability: 0.54%
[11]; 1 nM
  percent inhibition of viability: -5.95%
[11]; 10 nM
  percent inhibition of viability: -3.54%
[11]; 100 nM
  percent inhibition of viability: 3.36%
[11]; 1000 nM
  percent inhibition of viability: -0.74%
[11]; 10000 nM
  percent inhibition of viability: -0.37%
[12]; 1 nM
  percent inhibition of viability: -6.68%
[12]; 10 nM
  percent inhibition of viability: -7.72%
[12]; 100 nM
  percent inhibition of viability: 5.14%
[12]; 1000 nM
  percent inhibition of viability: 4.15%
[12]; 10000 nM
  percent inhibition of viability: 11.5%
[13]; 1 nM
  percent inhibition of viability: -9.34%
[13]; 10 nM
  percent inhibition of viability: 1.62%
[13]; 100 nM
  percent inhibition of viability: -10.3%
[13]; 1000 nM
  percent inhibition of viability: -0.25%
[13]; 10000 nM
  percent inhibition of viability: -11.9%
[14]; 1 nM
  percent inhibition of viability: 1.45%
[14]; 10 nM
  percent inhibition of viability: 1.94%
[14]; 100 nM
  percent inhibition of viability: -1.25%
[14]; 1000 nM
  percent inhibition of viability: -1.57%
[14]; 10000 nM
  percent inhibition of viability: -1.55%
[15]
  drug sensitivity score: 0
[16]
  drug sensitivity score: 0
[17]
  drug sensitivity score: 0
[18]
  drug sensitivity score: 0
[19]
  drug sensitivity score: 0
[20]
  drug sensitivity score: 1.41
[21]
  drug sensitivity score: 0
[22]
  drug sensitivity score: 0
[23]
  drug sensitivity score: 0
[24]
  drug sensitivity score: 0
[25]
  drug sensitivity score: 0
[26]
  drug sensitivity score: 0
[27]
  drug sensitivity score: 0
[28]
  drug sensitivity score: 0

## Cc1nc(N)sc1-c1ccnc(Nc2ccc(N3CCOCC3)cc2)n1 [CYC-116] (max concentration tested 10000 nM)
[1]; 1 nM
  percent inhibition of viability: -2.89%
[1]; 10 nM
  percent inhibition of viability: -0.2%
[1]; 100 nM
  percent inhibition of viability: 2.84%
[1]; 1000 nM
  percent inhibition of viability: 57.5%
[1]; 10000 nM
  percent inhibition of viability: 82%
[2]; 1 nM
  percent inhibition of viability: -3.32%
[2]; 10 nM
  percent inhibition of viability: -3.55%
[2]; 100 nM
  percent inhibition of viability: 6.03%
[2]; 1000 nM
  percent inhibition of viability: 60.9%
[2]; 10000 nM
  percent inhibition of viability: 84.2%
[3]; 1 nM
  percent inhibition of viability: -0.53%
[3]; 10 nM
  percent inhibition of viability: -4.65%
[3]; 100 nM
  percent inhibition of viability: 3.54%
[3]; 1000 nM
  percent inhibition of viability: 44.8%
[3]; 10000 nM
  percent inhibition of viability: 83.8%
[4]; 1 nM
  percent inhibition of viability: -1.55%
[4]; 10 nM
  percent inhibition of viability: -6.85%
[4]; 100 nM
  percent inhibition of viability: 1.16%
[4]; 1000 nM
  percent inhibition of viability: 39.8%
[4]; 10000 nM
  percent inhibition of viability: 89.7%
[5]; 1 nM
  percent inhibition of viability: -0.11%
[5]; 10 nM
  percent inhibition of viability: -0.55%
[5]; 100 nM
  percent inhibition of viability: 5.34%
[5]; 1000 nM
  percent inhibition of viability: 70.7%
[5]; 10000 nM
  percent inhibition of viability: 106%
[6]; 1 nM
  percent inhibition of viability: -10.5%
[6]; 10 nM
  percent inhibition of viability: -10.4%
[6]; 100 nM
  percent inhibition of viability: 3.17%
[6]; 1000 nM
  percent inhibition of viability: 39.8%
[6]; 10000 nM
  percent inhibition of viability: 72.8%
[7]; 1 nM
  percent inhibition of viability: -2.66%
[7]; 10 nM
  percent inhibition of viability: -0.98%
[7]; 100 nM
  percent inhibition of viability: 6.79%
[7]; 1000 nM
  percent inhibition of viability: 70.6%
[7]; 10000 nM
  percent inhibition of viability: 70.8%
[8]; 1 nM
  percent inhibition of viability: -16%
[8]; 10 nM
  percent inhibition of viability: -8.68%
[8]; 100 nM
  percent inhibition of viability: -5.36%
[8]; 1000 nM
  percent inhibition of viability: 42.6%
[8]; 10000 nM
  percent inhibition of viability: 83.9%
[9]; 1 nM
  percent inhibition of viability: 0.9%
[9]; 10 nM
  percent inhibition of viability: -6.56%
[9]; 100 nM
  percent inhibition of viability: 15.3%
[9]; 1000 nM
  percent inhibition of viability: 73.9%
[9]; 10000 nM
  percent inhibition of viability: 72.3%
[10]; 1 nM
  percent inhibition of viability: 0.75%
[10]; 10 nM
  percent inhibition of viability: 1.77%
[10]; 100 nM
  percent inhibition of viability: 4.66%
[10]; 1000 nM
  percent inhibition of viability: 29.5%
[10]; 10000 nM
  percent inhibition of viability: 94.7%
[11]; 1 nM
  percent inhibition of viability: -7.14%
[11]; 10 nM
  percent inhibition of viability: -2.39%
[11]; 100 nM
  percent inhibition of viability: -10.8%
[11]; 1000 nM
  percent inhibition of viability: 13.2%
[11]; 10000 nM
  percent inhibition of viability: 71.7%
[12]; 1 nM
  percent inhibition of viability: -4.6%
[12]; 10 nM
  percent inhibition of viability: 6.4%
[12]; 100 nM
  percent inhibition of viability: -9.95%
[12]; 1000 nM
  percent inhibition of viability: -18.7%
[12]; 10000 nM
  percent inhibition of viability: 23.6%
[13]; 1 nM
  percent inhibition of viability: -11.2%
[13]; 10 nM
  percent inhibition of viability: -13.2%
[13]; 100 nM
  percent inhibition of viability: -3.79%
[13]; 1000 nM
  percent inhibition of viability: 16.1%
[13]; 10000 nM
  percent inhibition of viability: 68.8%
[14]; 1 nM
  percent inhibition of viability: -12.5%
[14]; 10 nM
  percent inhibition of viability: -8.65%
[14]; 100 nM
  percent inhibition of viability: 4.23%
[14]; 1000 nM
  percent inhibition of viability: 3.35%
[14]; 10000 nM
  percent inhibition of viability: 71.4%
[15]
  drug sensitivity score: 11.5
[16]
  drug sensitivity score: 12.4
[17]
  drug sensitivity score: 9.98
[18]
  drug sensitivity score: 10.1
[19]
  drug sensitivity score: 14.2
[20]
  drug sensitivity score: 8.76
[21]
  drug sensitivity score: 14.1
[22]
  drug sensitivity score: 9.96
[23]
  drug sensitivity score: 16
[24]
  drug sensitivity score: 9.36
[25]
  drug sensitivity score: 6.12
[26]
  drug sensitivity score: 0.44
[27]
  drug sensitivity score: 6.33
[28]
  drug sensitivity score: 4.4

From the supplement of paper PMC5908809
